The results in this text go back to ChEMBL document CHEMBL5576054, “Lead compound profiling for small molecule inhibitors of the REV1-CT/RIR Translesion synthesis Protein-Protein interaction” (Bioorg Med Chem, 2024).

The nature of series [1]: Disruption of C-terminal REV-1/FAM-tagged Pol kappa RIR (unknown origin) interaction incubated for 1 hr by FP assay. Details: species or system Homo sapiens.
Series [2] can be described thus: Metabolic stability in human liver microsomes assessed as intrinsic clearance at 1 uM incubated upto 60 mins by LC-MS/MS analysis. The format is ADME, Microsome. The settings on record: 1 h. (Liver microsomes are a subcellular fraction often used to study metabolism.)
Series [3] in a line: Metabolic stability in human liver microsomes assessed as half life at 1 uM incubated upto 60 mins by LC-MS/MS analysis. In kind it is ADME, Microsome. The note with it: 1 h.
A short description of series [4]: Solubility of compound in PBS at pH 7.4. In kind it is physicochemical.
A short description of series [5]: Solubility of compound in PBS at pH 4. The settings on record: buffer. In kind it is physicochemical.
In series [6] the target is T1, DNA repair protein REV1 (Homo sapiens) (UniProt Q9UBZ9).
T1 sequence (whole entry): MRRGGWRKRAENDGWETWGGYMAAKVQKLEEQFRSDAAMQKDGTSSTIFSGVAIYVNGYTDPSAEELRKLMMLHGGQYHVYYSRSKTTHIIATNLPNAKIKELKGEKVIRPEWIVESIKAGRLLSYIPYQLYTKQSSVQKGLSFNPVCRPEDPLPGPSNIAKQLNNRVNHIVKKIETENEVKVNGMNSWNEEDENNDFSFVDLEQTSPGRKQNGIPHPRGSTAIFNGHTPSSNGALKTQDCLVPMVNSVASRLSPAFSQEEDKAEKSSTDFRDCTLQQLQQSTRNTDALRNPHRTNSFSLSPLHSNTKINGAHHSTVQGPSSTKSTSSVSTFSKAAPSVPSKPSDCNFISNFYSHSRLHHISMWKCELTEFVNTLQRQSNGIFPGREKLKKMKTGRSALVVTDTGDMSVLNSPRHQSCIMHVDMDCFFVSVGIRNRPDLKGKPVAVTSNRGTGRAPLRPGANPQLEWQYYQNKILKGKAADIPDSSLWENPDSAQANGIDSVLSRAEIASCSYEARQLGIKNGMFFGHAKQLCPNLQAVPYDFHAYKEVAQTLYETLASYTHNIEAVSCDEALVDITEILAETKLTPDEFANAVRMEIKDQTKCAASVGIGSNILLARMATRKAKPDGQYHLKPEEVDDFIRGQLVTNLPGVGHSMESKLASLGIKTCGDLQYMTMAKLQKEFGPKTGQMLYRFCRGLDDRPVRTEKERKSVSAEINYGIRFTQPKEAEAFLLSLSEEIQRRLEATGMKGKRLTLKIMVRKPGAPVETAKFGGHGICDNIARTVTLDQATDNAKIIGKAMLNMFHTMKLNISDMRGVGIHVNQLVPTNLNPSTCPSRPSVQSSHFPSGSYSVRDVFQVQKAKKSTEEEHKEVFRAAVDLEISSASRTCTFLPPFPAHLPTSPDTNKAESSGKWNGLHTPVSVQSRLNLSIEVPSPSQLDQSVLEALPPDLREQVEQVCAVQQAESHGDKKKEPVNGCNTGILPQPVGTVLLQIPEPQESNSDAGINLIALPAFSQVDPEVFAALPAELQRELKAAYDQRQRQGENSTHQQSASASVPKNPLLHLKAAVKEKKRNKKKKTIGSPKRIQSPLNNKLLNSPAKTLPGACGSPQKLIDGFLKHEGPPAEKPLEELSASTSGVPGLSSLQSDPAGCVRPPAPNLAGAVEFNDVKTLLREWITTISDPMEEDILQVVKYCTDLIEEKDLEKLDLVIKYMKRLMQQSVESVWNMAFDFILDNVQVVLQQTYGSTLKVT
The experiment in a line: Binding affinity to C-terminal human REV-1 incubated for 30 mins by MST assay.

For series [7], the system named is A549. The experiment in a line: Inhibition of cologenic survival in human A549 cells incubated for 8 to 10 days by crystal violet staining based analysis. The format is functional, cell-based. The settings on record: time 8-10 day.
In series [8] the target is T2, DNA repair protein REV1 (Homo sapiens, UniProt Q9UBZ9).
T2 sequence (Q9UBZ9 whole entry): T1 sequence (whole entry)
The experiment in a line: Binding affinity to C-terminal human REV-1 assessed as dissociation constant incubated for 30 mins by MST assay.

≈ marks a conversion by molar mass, not a printed value. Calls of active or inactive are those of the source. The rule behind the calls is not given here. Some results are limits rather than exact numbers.

As usually defined, the IC50 is the point on the concentration scale where inhibition reaches its midpoint. A low value points to greater potency. Take `CCCc1cc(C(=O)OCC)c(NC(=O)C2CCCN(C(=O)OC(C)(C)C)C2)s1` (configuration not stated): in series [1], the midpoint of inhibition, the IC50, lay at 2.5 µM.

In series [1], `CCCc1cc(C(=O)OCC)c(NC(=O)C2CCN(C(=O)OC(C)(C)C)CC2)s1` yielded an IC50 of 2.3 µM.

For orientation: solubility means how much of the substance goes into solution per volume. High values mean a readily soluble substance, low ones a poorly soluble substance. For `Cc1ccc(C(=O)N2CCN(c3ccccc3)CC2)cc1S(=O)(=O)N1CCOCC1`, the “intrinsic clearance (CLint)” value in series [2] came to 210 µL/min/mg. Also, in series [3], the t1/2 stood at 6.6 min. Further, the results for the solubility in series [4] and in series [5] were 14.1 µM (≈ 6.06 µg/mL) and 13.9 µM (≈ 5.97 µg/mL), respectively.

In the case of `Cc1cccn2c(=O)c3cc(C(=O)N[C@@H](C)c4ccccc4)c(N)[n+](CCOCCO)c3nc12`, the “intrinsic clearance (CLint)” value in series [2] was determined as 14.2 µL/min/mg. Moreover, the t1/2 in series [3] is recorded as 97.6 min. Also, the half-inhibitory concentration (IC50) in series [1] came to 1.6 µM. In addition, the solubility in series [4] is 51.7 µM; in series [5], 302 µM. Besides, the outcome in series [6] was inactive.

`C=CCOc1ccccc1C(=O)Nc1sc(CCC)cc1C(=O)OCC` gave an IC50 in series [1] of 14.9 µM.

As to `CC(=O)C(C)n1c(CN2CCN(c3cccc(Cl)c3)CC2)nc2c1c(=O)n(C)c(=O)n2C` (configuration not stated), the “intrinsic clearance (CLint)” value in series [2] amounted to 202 µL/min/mg. Besides, in series [3], the t1/2 is recorded as 3.4 min. Besides, the solubility in series [4] is 177 µM (≈ 81.2 µg/mL); in series [5], 45.5 µM (≈ 20.9 µg/mL).

`CCOC(=O)c1c(NC(=O)C2CCN(C(C)=O)CC2)sc2c1CCCC2` had a concentration for half-maximal inhibition (IC50) in series [1] of 5.8 µM.

In series [1], `C=CCOc1cccc(C(=O)Nc2sc(CCC)cc2C(=O)OCC)c1` registered a half-inhibitory concentration (IC50) of 66.2 µM.

`Cc1ccc(/N=N/c2ccc(N)nc2N)cc1C`: in series [7], the inhibition result is “Active”.

In the case of `CCCc1cc(C(=O)OCC)c(NC(=O)c2ccccc2)s1`, in series [1], the 50% inhibitory concentration (IC50) turned out to be 4.4 µM.

`CCCc1cc(C(=O)OC)c(NC(=O)c2ccccc2)s1` displayed a half-maximal inhibitory concentration (IC50) in series [1] of 4.7 µM.

In the case of `CCCCc1ccc(-n2nnc(C(=O)N(C)C3CCS(=O)(=O)C3)c2C)cc1` (configuration not stated), the “intrinsic clearance (CLint)” value in series [2] is 27.8 µL/min/mg. In addition, the t1/2 in series [3] is listed as 49.9 min. The solubility in series [4] is 10 µM (≈ 3.91 µg/mL); in series [5] it was 11.7 µM (≈ 4.57 µg/mL).

Consider `COC(=O)c1ccsc1NC(=O)C1CCN(C(C)=O)CC1`, for which the half-inhibitory concentration (IC50) in series [1] was above 100 µM.

In the case of `Nc1ccc(/N=N/c2ccc3ccccc3c2)c(N)n1`, the inhibition result in series [7] was “Active”.

For `Nc1ccc(/N=N/c2ccc3ccccc3c2)c(N)c1`, in series [7], the inhibition result was “Active”.

`CC(=O)N1CCC(C(=O)NCc2cccs2)CC1` showed a half-inhibitory concentration (IC50) in series [1] of 16.4 µM.

As a reminder, the Kd is a measure of binding affinity in units of concentration. Turning to `COc1ccc(OC)c(-c2csc(N3CCN(C(=O)c4ccco4)CC3)n2)c1`, in series [2], the “intrinsic clearance (CLint)” value worked out at 58.8 µL/min/mg. Also, the t1/2 in series [3] is listed as 23.6 min. Further, the Kd in series [8] is above 200 µM. Moreover, the IC50 in series [1] was 6.2 µM. In addition, the figures for the solubility in series [4] and in series [5] were 0.7 µM (≈ 0.28 µg/mL) and 1.3 µM (≈ 0.519 µg/mL), respectively.

In series [1], `CCCc1cc(C(=O)OCC)c(NC(=O)C2CCNCC2)s1` yielded a 50% inhibitory concentration (IC50) of 3.8 µM.

As for `CCCc1cc(C(=O)OCC)c(NC(=O)c2ccc(O)cc2)s1`, the half-maximal inhibitory concentration (IC50) in series [1] came out at 9.3 µM.

As for `CCCc1cc(C(=O)OCC)c(NC(=O)C2CCN(C(C)=O)CC2)s1`, in series [1], the IC50 worked out at 2.9 µM.

Turning to `CCCc1cc(C(=O)OCC)c(NC(=O)c2cccc(O)c2)s1`, in series [1], the 50% inhibitory concentration (IC50) came out at 2.5 µM.

In turn, `CC(=O)N1CCC(C(=O)NCCc2cccs2)CC1` yielded an IC50 in series [1] above 100 µM.

`C=CCOc1ccc(C(=O)Nc2sc(CCC)cc2C(=O)OCC)cc1` yielded an IC50 in series [1] of 25.3 µM.

With `CCCc1cc(C(=O)OCC)c(NC(=O)C2CCCNC2)s1` (configuration not stated), the concentration for half-maximal inhibition (IC50) in series [1] turned out to be 1.2 µM.

In turn, `CCCc1cc(C(=O)OCC)c(NC(=O)c2ccccc2O)s1` yielded an IC50 in series [1] of 16.7 µM.

On to `Cc1cc(C)c2nc(-c3ccncc3)cc(C(=O)NCCCn3ccnc3)c2c1`, for which, in series [2], the “intrinsic clearance (CLint)” value stood at 148 µL/min/mg. Besides, in series [3], the t1/2 was determined as 4.7 min. Moreover, the Kd in series [8] is above 200 µM. It took 6.7 µM to reach half-maximal inhibition in series [1] (IC50). Also, the solubility was 146 µM (≈ 56.3 µg/mL) in series [4] and 268 µM (≈ 103 µg/mL) in series [5].

For the compound `C=CCOc1cc(OCC=C)cc(C(=O)Nc2sc(CCC)cc2C(=O)OCC)c1`, the IC50 in series [1] was found to be 49.7 µM.

`CCCc1cc(C(=O)OCC)c(NC(=O)c2cc(O)cc(O)c2)s1` had an IC50 in series [1] above 100 µM.
